Results taken from patent US5621102A, “Process for preparing enantiomerically pure xanthine derivatives” (Cell Therapeutics, Inc., priority 1995, dated 1997).
Several values for one entry are separate records, joined by “and”; a condition that tells them apart may be missing. Equal entries are not always repeated.

Assays:
[1] = system: endotoxin induced lethality; assay: endotoxin induced lethality in mice (septic shock model); format: in vivo, Balb/c mice; settings: for cumulative percent survival: 72 hours post LPS (LPS-only 7%); for survival (Number Surviving/Total): single experiments
Experimental: Animals were treated with 10 μg/gm of LPS (i.v.) Immediately following the LPS (t=0), 2 hrs after the LPS (t=2) or 4 hrs following LPS (t-4) the mice were treated with their first treatment of CT1501R (100 mg/kg, i.p.). The mice were treated with CT1501R three times per day thereafter, and animal survival was monitored.
This example illustrates the effect of CT1501R on survival in mice given a lethal dose of endotoxin. We determined if CT1501R protects against endotoxin induced lethality in a murine model. Septic shock was modeled by endotoxin injection of 6-8 week old female Balb/c mice similar to previously published reports (Ashkenazi et al. Proc. Natl. Acad. Sci. U.S.A. 88: 10535-10539, 1991) under protocols approved by the Animal Use Committee of the Biomembrane Institute, Seattle, Wash. Animals were injected intravaneously (i.v.) with an approximate LD100 dose (10 μg/g) of Salmonella abortus equi-derived endotoxin (Sigma Chemical Co., L-1887) in phosphate buffered saline (PBS). CT1501R at a dose of 100 μg/kg was injected intraperitoneally (IP) 3 times per day ([…]). Control mice were injected at the same times with a similar volume of vehicle control (PBS). Survival was followed for at least 72 hours.
Ten mice were treated each with PB S alone or CT 1501R alone on the same schedule as the experimental mice. […] Endotoxin survival data were summarized from a total of six (6) independent experiments. Summary Table 1 details the results of each of the six experiments. In FIG. 5, each time point represents a minimum of three (3) experiments comprising at least twenty (20) mice per group. A probability analysis of the survival data using a Fisher's Exact One Tailed Test is given as Table 3. Significant protection was conferred if CT1501R was administered immediately after the LPS treatment. The cumulative percent survival at 72 hours post LPS treatment was 60% compared to 7% for the LPS-only treated animals (p=<0.0005; Table 3).

[2] = system: IL-1-α release in LPS activated PEC; assay: IL-1α release from LPS activated PEC, ELISA; format: cell-based; settings: Mus musculus, at 24 hours after LPS, read-out: maximum inhibition of IL-1α release
Experimental: Cells were isolated and treated with or without 250 μM CT1501R one hour prior to activation with 10 μg/ml LPS. At various times later, supernatants were harvested and assayed for IL-1-α by ELISA (+/-SD)
Murine peritoneal exudate cell macrophages (PEC) were isolated by perfusion of mouse peritoneum and plated into 96-well trays at 5×10^5 cells per well. Cells were stimulated with 5 μg/ml Salmonella abortus equi-derived endotoxin CLPS; Sigma Chemical Co., L-1887) or 50 ng/ml IL-1α (Genzyme; Cambridge, Mass.) with or without the addition of CT1501R added to the cultures one hour prior to addition of the stimulus. At various times thereafter, supernatants were removed and levels of either TNF-α or IL-1α were assayed using commercial 96-well microtiter immunoassay kits (Genzyme; TNF; Endogen, Boston, Mass.; IL-1α) according to manufacturer's specifications. For the adhesion studies, early passage human umbilical vein endothelial cells (HUVEC) were obtained from commercial suppliers (Clonetics, San Diego, Calif. or Cell Systems, Seattle, Wash.) and cultured in defined, Hepes buffered, serum free medium (Cell Systems, cat 301-180) supplemented with acidic FGF (Cell Systems cat 401-111). […] After addition of […] Hanks Balanced Salt Solution (HBSS), the microtiter plate was then analyzed on a Millipore Cytofiuor fluorescent plate reader (excitation 488 nm; emission 525 nm). […]

[3] = system: hematopoietic reconstitution following 5-FU; assay: 5-fluorouracil (5-FU) induced bone marrow suppression in mice; format: in vivo, Balb/C mice
From the text: Groups of 4 mice were phlebotomized at each time point. The values on the graph represent the means ±1 SD.
Groups of 4 mice were phlebotomized at each time point. The values on the group represent the means ±1 SD.
Groups of 4 mice were sacrificed and had one femur harvested at each time point. The values on the graph represent the means ±1 SD of the mean number of colonies per each individual tested in triplicate cultures.
Female Balb/C mice (VAF, Charles River Laboratories, 6-8 wks of age approximately 17.3-18.5 g) were treated with 5-FU at a dose of 200 mg/kg intraperitoneally (i.p.) in experiment 1 or 190 μg/kg in experiment 2. […] Mice (4 per group) were sacrificed starting 2 days after 5-FU by cardiac puncture under halothane anesthesia followed by cervical dislocation and had total white blood cell counts and differential counts performed. Platelet counts were performed using phase-contrast microscopy in duplicate. Femurs were harvested and the number of granulocyte-macrophage colony forming cells (CFU-GM) per femur were measured using a standard assay (Terry Fox Laboratories, Vancouver, British Columbia) using pokeweed mitogen spleen conditioned medium as the growth factor. Each femur was plated separately in triplicate and the mean and means for each experimental point was calculated. Standard deviations used for staffstidal analysis were deviations of the mean number of colonies measured for each femur.
Experiment 2 was similar to experiment 1 with the following exceptions: (1) the dose of 5-FU was decreased to 185 mg/kg; (2) daily blood draws were performed between days 10 and 15; and (3) platelet counts were performed.

Question: With C[C@@H](O)CCCCn1c(=O)c2c(ncn2C)n(C)c1=O [CT1501R, (R)-1-(5-hydroxyhexyl)-3,7-dimethylxanthine] as the compound, how does the cumulative percent survival ([1]; CT1501R four hours after LPS) read?
Answer: 37%

Question: And the cumulative percent survival ([1]; CT1501R immediately after LPS)?
Answer: 60%

Question: And the cumulative percent survival ([1]; CT1501R two hours after LPS)?
Answer: 55%

Question: And the “survival compared with published results for Genentech's bifunctional TNF receptor” value ([1]; drug given approximately simultaneously with or two hours following lethal LPS)?
Answer: consistently was better at improving survival than Genentech's TNF receptor

Question: And the “survival (Number Surviving/Total)” value ([1]; first CT-1501R dose t = 0 Hr post LPS, 24 Hr post LPS)?
Answer: 4/5 and 5/5 and 9/10

Question: What about the “survival (Number Surviving/Total)” value ([1]; first CT-1501R dose t = 0 Hr post LPS, 48 Hr post LPS) of the same compound?
Answer: 4/5 and 5/5 and 7/10

Question: And the “survival (Number Surviving/Total)” value ([1]; first CT-1501R dose t = 0 Hr post LPS, 72 Hr post LPS)?
Answer: 4/5 and 5/5 and 3/10

Question: And the “survival (Number Surviving/Total)” value ([1]; first CT-1501R dose t = 2 Hr post LPS, 24 Hr post LPS)?
Answer: 4/5 and 5/5 and 5/10

Question: And the “survival (Number Surviving/Total)” value ([1]; first CT-1501R dose t = 2 Hr post LPS, 48 Hr post LPS)?
Answer: 3/5 and 5/5 and 3/10

Question: And the “survival (Number Surviving/Total)” value ([1]; first CT-1501R dose t = 2 Hr post LPS, 72 Hr post LPS)?
Answer: 3/5 and 5/5 and 3/10

Question: What about the “survival (Number Surviving/Total)” value ([1]; first CT-1501R dose t = 4 Hr post LPS, 24 Hr post LPS) of the same compound?
Answer: 5/5 and 7/10 and 3/10

Question: What about the “survival (Number Surviving/Total)” value ([1]; first CT-1501R dose t = 4 Hr post LPS, 48 Hr post LPS) of the same compound?
Answer: 3/5 and 5/10 and 4/10 and 3/10

Question: And the “survival (Number Surviving/Total)” value ([1]; first CT-1501R dose t = 4 Hr post LPS, 72 Hr post LPS)?
Answer: 3/5 and 5/10 and 2/10 and 3/10

Question: And the “adverse effects, drug alone without endotoxin” value ([1]; ten mice, same schedule as the experimental mice)?
Answer: no adverse effects noted

Question: And the inhibition at 250 µM [2]?
Answer: ~50%

Question: What about the “increase in number of CFU-GM/femur during hematopoietic recovery vs control” value ([3]; 5-FU treated mice) of the same compound?
Answer: approximately two-fold increase

Question: And the “CFU-GM/femur vs vehicle control and day 0” value ([3]; experiment 1, day 13 (p=0.024 vs vehicle, p=0.05 vs day 0))?
Answer: significantly more CFU-GM/femur on day 13

Question: And the “ANC (absolute neutrophil count), mean ±SD” value ([3]; experiment 1, day 13 after 5-FU (control 180±10/mm^3, P=0.05))?
Answer: 440±17 /mm^3

Question: And the “WBC of 5-FU treated mice vs vehicle control” value ([3]; experiment 1, days 6 and 10 (p=0.019 and 0.036))?
Answer: significantly lower in vehicle treated controls than in CT1501R treated mice

Question: What about the “WBC vs vehicle control” value ([3]; experiment 2) of the same compound?
Answer: significantly higher WBC's

Question: What about the neutrophil recovery ([3]; experiment 2) of the same compound?
Answer: Neutrophil recovery was accelerated

Question: And the “number of cells per femur during hematopoietic recovery vs control” value ([3]; experiment 2)?
Answer: number of cells per femur was increased

Question: What about the “platelet count nadir and rate of recovery vs vehicle control” value ([3]; experiment 2) of the same compound?
Answer: platelet count nadir and rate of recovery were also increased

Question: And the “WBC and ANC, mice without 5-FU” value ([3]; i.p. bid, no 5-FU)?
Answer: remained within 1 SD of control values

Question: What about the “adverse effects, mice without 5-FU” value ([3]; i.p. bid, no 5-FU) of the same compound?
Answer: no apparent adverse effects

Question: What about the “rise in ANC and CFU-GM/femur associated with vehicle injections, mice without 5-FU” value ([3]; no 5-FU, twice daily i.p. injections) of the same compound?
Answer: prevented both the rise in ANC and rise in CFU-GM/femur
